From ChEMBL document CHEMBL1132959, “Design of potent dicyclic (1-5/4-10) gonadotropin releasing hormone (GnRH) antagonists” (J Med Chem, 2000)
Values belong to the compound of their own block, whether it stands above or below them.

Experiments:
[1] = species: Rattus norvegicus; assay: Antiovulatory potency at 100 ug/rat expressed as rats ovulating by total no. of rats (0/8); type: functional
[2] = species: Rattus norvegicus; assay: Antiovulatory potency at 25 ug/rat expressed as rats ovulating by total no. of rats (5/5); type: functional
[3] = species: Rattus norvegicus; assay: Antiovulatory potency at 50 ug/rat expressed as rats ovulating by total no. of rats (1/8); type: functional
[4] = species: Rattus norvegicus; assay: Antiovulatory potency at 100 ug/rat expressed as rats ovulating by total no. of rats (4/7); type: functional
[5] = species: Rattus norvegicus; assay: Antiovulatory potency at 250 ug/rat expressed as rats ovulating by total no. of rats (4/4); type: functional
[6] = molecular target: T1, Gonadotropin-releasing hormone receptor (Rattus norvegicus, UniProt P30969); assay: Affinity for rat gonadotrophin releasing hormone (GnRH) receptor using HEK293 cells transfected with rat Gonadotropin-releasing hormone receptor; type: cell-based; conditions: hek293
T1 sequence (P30969 whole entry): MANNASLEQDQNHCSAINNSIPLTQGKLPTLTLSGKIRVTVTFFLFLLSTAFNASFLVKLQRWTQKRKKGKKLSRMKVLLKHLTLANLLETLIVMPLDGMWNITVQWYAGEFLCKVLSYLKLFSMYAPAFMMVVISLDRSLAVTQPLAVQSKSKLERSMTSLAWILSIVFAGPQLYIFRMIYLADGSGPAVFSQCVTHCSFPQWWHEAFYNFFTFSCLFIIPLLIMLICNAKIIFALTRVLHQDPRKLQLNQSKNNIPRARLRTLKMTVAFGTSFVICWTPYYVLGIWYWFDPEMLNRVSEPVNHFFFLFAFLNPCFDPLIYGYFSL

[7] = species: Rattus norvegicus; assay: Antiovulatory potency at 100 ug/rat expressed as rats ovulating by total no. of rats (1/8); type: functional
[8] = species: Rattus norvegicus; assay: Antiovulatory potency at 250 ug/rat expressed as rats ovulating by total no. of rats (0/5); type: functional
[9] = species: Rattus norvegicus; assay: Antiovulatory potency at 250 ug/rat expressed as rats ovulating by total no. of rats (0/4); type: functional
[10] = species: Rattus norvegicus; assay: Antiovulatory potency at 100 ug/rat expressed as rats ovulating by total no. of rats (14/14); type: functional
[11] = species: Rattus norvegicus; assay: Antiovulatory potency at 10 ug/rat expressed as rats ovulating by total no. of rats (2/7); type: functional
[12] = species: Rattus norvegicus; assay: Antiovulatory potency at 5 ug/rat expressed as rats ovulating by total no. of rats (3/3); type: functional
[13] = species: Rattus norvegicus; assay: Antiovulatory potency at 1000 ug/rat expressed as rats ovulating by total no. of rats (3/3); type: functional
[14] = species: Rattus norvegicus; assay: Antiovulatory potency at 500 ug/rat expressed as rats ovulating by total no. of rats (6/6); type: functional
[15] = molecular target: T1, Gonadotropin-releasing hormone receptor; assay: Affinity for rat Gonadotropin-releasing hormone receptor membrane evaluated using HEK293 cells transfected with rat Gonadotropin-releasing hormone receptor; type: cell-based
[16] = species: Rattus norvegicus; assay: Antiovulatory potency at 100 ug/rat expressed as rats ovulating by total no. of rats (0/3); type: functional
[17] = species: Rattus norvegicus; assay: Antiovulatory potency at 25 ug/rat expressed as rats ovulating by total no. of rats (3/6); type: functional
[18] = species: Rattus norvegicus; assay: Antiovulatory potency at 50 ug/rat expressed as rats ovulating by total no. of rats (2/5); type: functional
[19] = species: Rattus norvegicus; assay: Antiovulatory potency at 10 ug/rat expressed as rats ovulating by total no. of rats (3/3); type: functional

Compound: CC(=O)N[C@@H]1CCC(=O)NCC(=O)NCC[C@@H]2NC(=O)[C@@H](CC(=O)NC[C@H](C(N)=O)NC(=O)[C@H]3CCCN3C(=O)[C@H](CCCN=C(N)N)NC(=O)[C@@H](CC(C)C)NC(=O)[C@@H](Cc3ccc4ccccc4c3)NC2=O)NC(=O)[C@@H](Cc2c[nH]c3ccccc23)NC(=O)[C@H](Cc2ccc(Cl)cc2)NC1=O
Ovulating rats [1]: 0
Ovulating rats [2]: 5
Ovulating rats [3]: 1

Compound: CC(=O)N[C@H](Cc1ccc2ccccc2c1)C(=O)N[C@H](Cc1ccc(Cl)cc1)C(=O)N[C@@H]1CC(=O)NCCCC[C@@H]2NC(=O)[C@H](CC(C)C)NC(=O)[C@@H](Cc3ccc4ccccc4c3)NC(=O)[C@H](CCCN=C(N)N)NC(=O)[C@H](CC(=O)NC[C@@H](C(N)=O)NC(=O)[C@@H]3CCCN3C2=O)NC1=O
Ovulating rats [4]: 4
Ovulating rats [5]: 4

Compound: CC(=O)N[C@H](Cc1ccc2ccccc2c1)C(=O)N[C@H](Cc1ccc(Cl)cc1)C(=O)N[C@@H]1CC(=O)NCC[C@@H](C(=O)N2CCC[C@H]2C(=O)N[C@H](C)C(N)=O)NC(=O)[C@H](CC(C)C)NC(=O)[C@@H](Cc2ccc3ccccc3c2)NC(=O)[C@H](CCCN=C(N)N)NC(=O)[C@H](C)NC1=O
Ovulating rats [9]: 0
Ovulating rats [10]: 14

Compound: CC(=O)N[C@H](Cc1ccc2ccccc2c1)C(=O)N[C@H](Cc1ccc(Cl)cc1)C(=O)N[C@@H]1CCC(=O)NCCCC[C@@H](C(=O)N2CCC[C@H]2C(=O)N[C@H](C)C(N)=O)NC(=O)[C@H](CC(C)C)NC(=O)[C@@H](Cc2ccc3ccccc3c2)NC(=O)[C@H](CCCN=C(N)N)NC(=O)[C@H](C)NC1=O
Ovulating rats [13]: 3

Continued, in another order:

Ki [6]: 1.7 nM
Compound: CC(=O)N[C@@H]1CCC(=O)NCC[C@H]2NC(=O)[C@@H](CC(=O)NC[C@H](C(N)=O)NC(=O)[C@H]3CCCN3C(=O)[C@H](CCCN=C(N)N)NC(=O)[C@@H](CC(C)C)NC(=O)[C@@H](Cc3ccc4ccccc4c3)NC2=O)NC(=O)[C@@H](Cc2c[nH]c3ccccc23)NC(=O)[C@H](Cc2ccc(Cl)cc2)NC1=O
Ovulating rats [7]: 1
Ovulating rats [8]: 0

Ki [6]: 0.44 nM
Compound: CC(=O)N[C@@H]1CCC(=O)NCC(=O)NC[C@H]2NC(=O)[C@@H](CC(=O)NC[C@H](C(N)=O)NC(=O)[C@H]3CCCN3C(=O)[C@H](CCCN=C(N)N)NC(=O)[C@@H](CC(C)C)NC(=O)[C@@H](Cc3ccc4ccccc4c3)NC2=O)NC(=O)[C@@H](Cc2c[nH]c3ccccc23)NC(=O)[C@H](Cc2ccc(Cl)cc2)NC1=O
Ovulating rats [11]: 2
Ovulating rats [12]: 3

Ki [6]: 89 nM
Compound: CC(=O)N[C@H]1CSSC[C@@H]2NC(=O)[C@@H](CC(=O)NC[C@H](C(N)=O)NC(=O)[C@H]3CCCN3C(=O)[C@H](CCCN=C(N)N)NC(=O)[C@@H](CC(C)C)NC(=O)[C@H](CCCN=C(N)N)NC2=O)NC(=O)[C@@H](Cc2c[nH]c3ccccc23)NC(=O)[C@H](Cc2ccc(Cl)cc2)NC1=O
Ovulating rats [14]: 6

Ki [15]: 2.9 nM
Compound: CC(=O)N[C@H]1CCC(=O)NCC(=O)NCC[C@H]2NC(=O)[C@H](CC(=O)NC[C@@H](C(N)=O)NC(=O)[C@@H]3CCCN3C(=O)[C@H](CCCNC(=N)N)NC(=O)[C@H](CC(C)C)NC(=O)[C@@H](Cc3ccc4ccccc4c3)NC2=O)NC(=O)[C@@H](Cc2c[nH]c3ccccc23)NC(=O)[C@@H](Cc2ccc(Cl)cc2)NC1=O

Ki [6]: 0.31 nM
Compound: CC(=O)N[C@@H]1CC(=O)NCC(=O)NCCC[C@H]2NC(=O)[C@@H](CC(=O)NC[C@H](C(N)=O)NC(=O)[C@H]3CCCN3C(=O)[C@H](CCCN=C(N)N)NC(=O)[C@@H](CC(C)C)NC(=O)[C@@H](Cc3ccc4ccccc4c3)NC2=O)NC(=O)[C@@H](Cc2c[nH]c3ccccc23)NC(=O)[C@H](Cc2ccc(Cl)cc2)NC1=O
Ovulating rats [16]: 0
Ovulating rats [17]: 3
Ovulating rats [18]: 2
Ovulating rats [19]: 3
